From ChEMBL document CHEMBL1201862, “PubChem BioAssay data set” (2004)
Calls of active or inactive are those of the source.

Assays:
[1] = M. tuberculosis growth inhibition, HTS (AID 449762); type: functional
[2] = HIV-1 Vif–A3G interaction blockers – biochemical, TR-FRET, GST-Vif 1-94, biotin-A3G peptide, dose response retest, primary screen (AID 1117319); type: functional;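 note: TR-FRET signal of purified GST-Vif binding a biotinylated A3G peptide; inhibitors lower the FRET signal by blocking Vif and A3G binding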
Estrogen receptor beta = Estrogen receptor beta (Homo sapiens, UniProt Q92731);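 note: recombinant ER-beta bound to coactivator SRC1 peptide in presence of estradiol agonist; inhibitors block coactivator peptide binding and lower the FRET signal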
[3] = IC50 of Artemis nuclease activity blockers – biochemical, fluorescence intensity, dose response (AID 720701); type: functional;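 note: Artemis endonuclease enzyme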
[4] = P. falciparum Dd2 growth inhibitors, dose response, SYBR Green, cherry-picked samples (AID 1159567); type: functional, cell-based
[5] = A549 cell cytotoxicity, dose response, cytotoxicity control, plate reader, cherry-pick, antagonist series (AID 743412); type: functional, cell-based
[6] = A2780 cell killing – plate reader, dry powder samples, cytotoxicity control, dose response (AID 743046); type: functional, cell-based
[7] = blockers of bursicon-stimulated LGR2 cAMP reporter – cell-based, HEK293, CRE-luciferase reporter, cherry pick, set 2, dose response (AID 743343); type: functional;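 note: transfected cells were stimulated with diluted bursicon conditioned medium after compound addition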
[8] = OVCAR-3 cell viability loss – plate reader, dry powder samples, PAX8 inhibitor project, dose response (AID 743044); type: functional, cell-based
[9] = toxicity to human HepG2 hepatoma cells – cell-based, plate reader, dry powder samples, cytotoxicity control, dose response (AID 1159569); type: functional;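 note: inhibitor potency with signal falling toward the positive control level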
[10] = Dd2 malaria parasite growth inhibition potency – SYBR Green, dry powder samples, dose response (AID 1159566); type: functional, cell-based;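 note: potency for growth inhibition with lower SYBR green DNA signal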
[11] = blockade of melanocortin 4 receptor signaling – cell-based, plate reader, cherry pick, counter-screen for LGR2 antagonist project, dose response (AID 743444); type: functional;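 note: transfected HEK 293 cells stimulated with alpha-MSH peptide; potency of inhibitors of the alpha-MSH evoked signal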
[12] = toxicity toward HepG2 liver cells – cell-based, plate reader, cherry-pick, antagonist series, cytotoxicity control, dose response (AID 743416); type: functional
[13] = growth inhibition of yeast DHODH-expressing 3D7 parasites – SYBR Green, dry powder samples, dose response (AID 1159570); type: functional, cell-based;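 note: parasite growth measured after 72 hours of compound exposure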
[14] = toxicity toward immortalized ovarian surface epithelium – cell-based, plate reader, dry powder samples, cytotoxicity control for PAX8 inhibitor project, dose response (AID 743045); type: functional
Paired box protein Pax-8 = Paired box protein Pax-8 (Homo sapiens, UniProt Q06710); experiment: PAX8 transcriptional activity inhibition in RMG-I – RMG-I cells, luciferase, cherry-pick, dose response (AID 687027); type: functional, cell-based;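 note: luciferase reporter driven by Pax8 target thyroperoxidase promoter measured by SteadyGlo luminescence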
[15] = viability loss in HEK293 cells – cell-based, plate reader, cherry-picked samples, cytotoxicity control, dose response (AID 743446); type: functional
[16] = growth inhibition of PfATP4-mutant resistant parasites – NITD609-resistant line, SYBR Green, dry powder, dose response (AID 1159571); type: functional, cell-based;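 note: parasites synchronized at ring stage by sorbitol before testing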
[17] = Dd2 parasite growth inhibition in erythrocytes – SYBR Green, dry powder samples, set 9, dose response (AID 1159568); type: functional, cell-based
[18] = IGROV1 cell killing – plate reader, dry powder samples, PAX8 inhibitor project, dose response (AID 743043); type: functional, cell-based; conditions: IGROV-1
[19] = OVCAR8 cell viability loss – plate reader, dry powder samples, PAX8 project, dose response (AID 743197); type: functional, cell-based; conditions: OVCAR-8
[20] = IC50 of insulin release inhibition, rat insulinoma INS-1E line, 5 mM glucose, cell-based (AID 1117331); type: functional
NADPH oxidase 1 [21] = molecular target: T1, NADPH oxidase 1 (Homo sapiens, UniProt Q9Y5S8); experiment: potency of NOX1 inhibition in cells – cell-based, luminescence, cherry picks 2, dose response (AID 434997); type: functional
T1 sequence (Q9Y5S8 whole entry): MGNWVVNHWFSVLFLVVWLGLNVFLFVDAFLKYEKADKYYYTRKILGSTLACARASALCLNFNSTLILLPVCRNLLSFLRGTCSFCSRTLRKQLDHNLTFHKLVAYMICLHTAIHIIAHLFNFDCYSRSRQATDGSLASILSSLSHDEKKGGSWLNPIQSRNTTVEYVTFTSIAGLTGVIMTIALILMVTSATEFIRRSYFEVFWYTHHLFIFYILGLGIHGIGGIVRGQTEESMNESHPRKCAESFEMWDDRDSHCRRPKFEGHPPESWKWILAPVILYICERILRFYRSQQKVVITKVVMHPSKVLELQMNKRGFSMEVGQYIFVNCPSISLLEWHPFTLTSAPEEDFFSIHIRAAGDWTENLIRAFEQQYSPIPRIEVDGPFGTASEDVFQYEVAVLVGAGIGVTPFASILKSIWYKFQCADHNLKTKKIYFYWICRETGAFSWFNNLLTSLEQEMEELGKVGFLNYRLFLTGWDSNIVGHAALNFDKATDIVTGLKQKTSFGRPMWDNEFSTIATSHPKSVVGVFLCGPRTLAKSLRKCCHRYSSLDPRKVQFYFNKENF

NADPH oxidase 1 [22] = molecular target: T1, NADPH oxidase 1; experiment: Late stage results from the probe development effort to identify inhibitors of NOX1: HEK/293 IC50. [Related pubchem assays: 1796 (Summary AID (NOX1)), 2752 (Primary screen (NOX1 inhibitors, synthesized analogs set 2)), 2664 (Primary screen (NOX1 inhibitors, synthesized analogs)), 1792 (Primary Screen (NOX1)), 2545 (Confirmation screen (NOX1 …; type: functional
[23] = Late-stage results from the probe development effort to identify antagonists of arginine vasopressin receptor 1a (AVPR1a): fluorescence-based cell-based dose response OXTR inhibition counterscreen assay.; type: functional
Vasopressin V1b receptor = Vasopressin V1b receptor (Homo sapiens, UniProt P47901); experiment: Late-stage results from the probe development effort to identify antagonists of arginine vasopressin receptor 1a (AVPR1a): fluorescence-based cell-based dose response AVPR1b inhibition counterscreen assay.; type: functional
Vasopressin V2 receptor = Vasopressin V2 receptor (Homo sapiens, UniProt P30518); experiment: Late-stage results from the probe development effort to identify antagonists of arginine vasopressin receptor 1a (AVPR1a): fluorescence-based cell-based dose response AVPR2 inhibition counterscreen assay.; type: functional
[24] = Late-stage results from the probe development effort to identify antagonists of arginine vasopressin receptor 1a (AVPR1a): fluorescence-based cell-based dose response AVPR1a inhibition assay.; type: functional

Chain of Vasopressin V1b receptor (P47901 whole entry): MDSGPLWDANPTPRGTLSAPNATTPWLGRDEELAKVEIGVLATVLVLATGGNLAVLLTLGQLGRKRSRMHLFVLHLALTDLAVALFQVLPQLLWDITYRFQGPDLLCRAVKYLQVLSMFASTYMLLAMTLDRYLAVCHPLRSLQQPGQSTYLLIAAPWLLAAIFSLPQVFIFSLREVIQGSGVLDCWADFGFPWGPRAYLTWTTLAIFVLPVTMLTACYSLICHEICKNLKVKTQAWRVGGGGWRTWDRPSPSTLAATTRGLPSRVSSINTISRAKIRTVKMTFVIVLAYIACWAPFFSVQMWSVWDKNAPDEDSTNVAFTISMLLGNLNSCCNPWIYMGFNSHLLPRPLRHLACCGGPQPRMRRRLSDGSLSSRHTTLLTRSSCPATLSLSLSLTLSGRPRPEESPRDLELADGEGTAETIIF
Chain of Estrogen receptor beta (Q92731 whole entry): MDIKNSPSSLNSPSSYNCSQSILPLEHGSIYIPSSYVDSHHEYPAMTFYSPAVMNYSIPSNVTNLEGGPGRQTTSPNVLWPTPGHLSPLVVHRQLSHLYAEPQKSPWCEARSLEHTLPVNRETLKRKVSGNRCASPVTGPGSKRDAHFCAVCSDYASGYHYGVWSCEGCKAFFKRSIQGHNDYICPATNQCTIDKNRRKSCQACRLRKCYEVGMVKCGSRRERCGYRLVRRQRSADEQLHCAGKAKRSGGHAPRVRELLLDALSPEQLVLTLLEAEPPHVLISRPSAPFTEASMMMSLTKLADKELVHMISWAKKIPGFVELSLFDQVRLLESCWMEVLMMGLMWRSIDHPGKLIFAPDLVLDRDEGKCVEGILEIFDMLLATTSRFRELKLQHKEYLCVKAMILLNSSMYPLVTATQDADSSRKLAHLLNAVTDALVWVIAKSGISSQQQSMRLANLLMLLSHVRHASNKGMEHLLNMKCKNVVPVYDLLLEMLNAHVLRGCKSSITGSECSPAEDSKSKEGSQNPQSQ
Chain of Paired box protein Pax-8 (Q06710 whole entry): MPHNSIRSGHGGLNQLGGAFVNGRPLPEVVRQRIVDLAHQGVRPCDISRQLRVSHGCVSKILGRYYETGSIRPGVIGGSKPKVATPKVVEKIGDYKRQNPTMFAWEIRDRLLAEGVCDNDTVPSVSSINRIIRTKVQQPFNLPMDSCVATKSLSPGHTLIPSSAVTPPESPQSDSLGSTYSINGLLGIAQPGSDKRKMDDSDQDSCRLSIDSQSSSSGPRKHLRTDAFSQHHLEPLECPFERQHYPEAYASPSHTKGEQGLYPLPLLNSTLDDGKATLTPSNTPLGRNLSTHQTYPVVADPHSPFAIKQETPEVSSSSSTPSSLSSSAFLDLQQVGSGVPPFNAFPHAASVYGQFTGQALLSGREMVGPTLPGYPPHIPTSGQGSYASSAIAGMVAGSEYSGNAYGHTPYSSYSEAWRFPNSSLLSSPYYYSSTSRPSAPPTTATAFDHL
Chain of Vasopressin V2 receptor (P30518 whole entry): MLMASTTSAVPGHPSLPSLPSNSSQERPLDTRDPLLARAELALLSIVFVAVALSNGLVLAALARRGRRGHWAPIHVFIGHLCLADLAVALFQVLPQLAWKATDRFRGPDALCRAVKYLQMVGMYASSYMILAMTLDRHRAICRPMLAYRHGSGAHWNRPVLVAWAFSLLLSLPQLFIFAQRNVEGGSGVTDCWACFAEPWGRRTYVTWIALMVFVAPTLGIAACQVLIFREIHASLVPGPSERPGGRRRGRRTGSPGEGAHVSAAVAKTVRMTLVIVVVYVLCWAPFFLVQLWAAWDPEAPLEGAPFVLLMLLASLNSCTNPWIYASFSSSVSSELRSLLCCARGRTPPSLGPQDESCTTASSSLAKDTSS

## Nc1ccc2c(c1)oc1ccccc12
[1]
  IC50: > 100000 nM (active)

## COc1ccc(NC(=O)CSc2nc3c(cc2C#N)CN(C)CC3)cc1
[2]
  IC50: > 100000 nM (active)
Estrogen receptor beta
  IC50: > 50000 nM (not active)
[3]
  IC50: > 20000 nM (inactive)

## O=C(C1CC1)N1C[C@@H]2N[C@H](C1)[C@@H]2c1ccc(-c2ccccc2F)cc1
[4]
  AC50: 584 nM (active)
[5]
  AC50: 1840 nM (active)
[6]
  AC50: 5340 nM (active)
[7]
  AC50: 2250 nM (active)
[8]
  AC50: 5960 nM (active)
[9]
  AC50: 32300 nM (active)
[10]
  AC50: 145 nM (active)
[11]
  AC50: 2570 nM (active)
[12]
  AC50: 4580 nM (active)
[13]
  AC50: 139 nM (active)
[14]
  AC50: 3240 nM (active)
Paired box protein Pax-8
  AC50: 1200 nM (active)
[15]
  AC50: 4120 nM (active)
[16]
  AC50: 225 nM (active)
[17]
  AC50: 830 nM (active)
[18]
  AC50: 4130 nM (active)
[19]
  AC50: 2720 nM (active)

## COCCCOc1ccnc(C[S+]([O-])c2nc3ccccc3[nH]2)c1C (stereo not drawn) [RABEPRAZOLE SODIUM]
[20]
  IC50: > 33300 nM (inactive)

## COc1cc(-c2nc(-c3ccccc3)c(-c3ccccc3)[nH]2)ccc1O
NADPH oxidase 1 [21]
  IC50: 370 nM (active)
NADPH oxidase 1 [22]
  IC50: 1810 nM (active)

## COc1ccc(N(CC2CC2)C(=O)N2CCN(c3ncc(Cl)cc3Cl)CC2)cc1
[23]
  IC50: 100 nM (active)
Vasopressin V1b receptor
  IC50: 3100 nM (active)
Vasopressin V2 receptor
  IC50: 2780 nM (active)
[24]
  IC50: 16.6 nM (active)
